In ChEMBL document CHEMBL5649167, “The SUV4-20 inhibitor A-196 verifies a role for epigenetics in genomic integrity” (Nat Chem Biol, 2017):
Each block holds one compound with its values, some of them ahead of it. The source made the active and inactive calls. The rule behind the calls is not given here.

Tests used:
Homo sapiens [1] = species on record: Homo sapiens; assay: Inhibition of GABAA (unknown origin) at 10 uM relative to control
Homo sapiens [2] = species on record: Homo sapiens; assay: Inhibition of human CB1 at 10 uM relative to control
Homo sapiens [3] = species on record: Homo sapiens; assay: Inhibition of human GABAA at 10 uM relative to control
MEF = assay: Antiproliferative activity against mouse MEF cells assessed as change in H4K20me1 at 10 uM incubated for 3 days by immunofluorescence analysis; type: functional, cell-based; details: time 3.0 day
Homo sapiens [4] = species on record: Homo sapiens; assay: Inhibition of human Gastric receptor I at 10 uM relative to control
U2OS [5] = assay: Inhibition of colony formation in human U2OS cells at 1 uM incubated for 48 hrs in the presence of olaparib by cell clonogenic assay; type: functional, cell-based
[6] = target: Histone-lysine N-methyltransferase SETD2 (Homo sapiens) (UniProt Q9BYW2); assay: Inhibition of SETD2 (unknown origin) using Biotin-tagged H4K20me1 and [3H-SAM] as substrate at 1 to 10 uM incubated for 2 hrs by scintillation proximity assay; details: dose 1-10 µM
[7] = target: Serine/threonine-protein kinase Chk1 (Homo sapiens) (UniProt O14757); assay: Inhibition of human CHK1 at 10 uM relative to control
Chain of Serine/threonine-protein kinase Chk1 (Homo sapiens) (O14757 whole entry): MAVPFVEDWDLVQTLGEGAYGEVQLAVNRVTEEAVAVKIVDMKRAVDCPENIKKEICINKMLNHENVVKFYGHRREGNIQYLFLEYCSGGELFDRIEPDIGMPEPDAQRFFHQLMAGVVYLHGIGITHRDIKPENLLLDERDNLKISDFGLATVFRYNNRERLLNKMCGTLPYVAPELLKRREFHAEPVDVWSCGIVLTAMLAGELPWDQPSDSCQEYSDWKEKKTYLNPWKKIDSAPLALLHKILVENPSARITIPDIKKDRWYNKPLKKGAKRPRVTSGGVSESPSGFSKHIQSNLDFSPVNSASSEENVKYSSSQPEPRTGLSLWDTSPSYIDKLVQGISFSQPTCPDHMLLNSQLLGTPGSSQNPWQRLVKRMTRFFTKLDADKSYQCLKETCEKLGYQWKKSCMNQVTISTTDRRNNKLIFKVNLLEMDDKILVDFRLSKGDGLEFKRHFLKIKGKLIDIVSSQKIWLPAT

U2OS [8] = assay: Cytotoxicity against human U2OS cells assessed as cell viability upto 12.5 uM incubated for 48 hrs; type: functional, cell-based
HeLa = assay: Antiproliferative activity against human HeLa cells assessed as cell population doubling at 1 uM incubated for 80 days; type: functional, cell-based; details: time 80.0 day
[9] = target: Serine/threonine-protein kinase PLK1 (Homo sapiens) (UniProt P53350); assay: Inhibition of human PLK1 at 10 uM relative to control
Chain of Serine/threonine-protein kinase PLK1 (Homo sapiens) (P53350 whole entry): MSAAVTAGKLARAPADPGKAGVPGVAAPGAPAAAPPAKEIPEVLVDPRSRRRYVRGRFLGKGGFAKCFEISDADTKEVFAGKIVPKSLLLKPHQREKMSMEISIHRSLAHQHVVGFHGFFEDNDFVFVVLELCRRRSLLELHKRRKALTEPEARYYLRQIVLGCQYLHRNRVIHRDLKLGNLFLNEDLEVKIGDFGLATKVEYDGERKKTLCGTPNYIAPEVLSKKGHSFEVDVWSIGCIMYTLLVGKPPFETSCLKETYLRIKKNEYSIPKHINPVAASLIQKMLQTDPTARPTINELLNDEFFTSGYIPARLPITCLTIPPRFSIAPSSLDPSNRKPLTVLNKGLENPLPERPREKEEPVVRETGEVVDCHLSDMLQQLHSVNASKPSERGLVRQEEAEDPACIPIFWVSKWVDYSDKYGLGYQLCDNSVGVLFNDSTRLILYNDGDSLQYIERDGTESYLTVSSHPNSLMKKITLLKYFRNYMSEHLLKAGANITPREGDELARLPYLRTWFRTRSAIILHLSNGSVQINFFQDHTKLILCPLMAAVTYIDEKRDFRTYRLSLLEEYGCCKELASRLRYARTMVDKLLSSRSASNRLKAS

[10] = target: Protein kinase C beta type (Homo sapiens) (UniProt P05771); assay: Inhibition of human PKCbeta 2 at 10 uM relative to control
Chain of Protein kinase C beta type (Homo sapiens) (P05771 2-671 limits assumed): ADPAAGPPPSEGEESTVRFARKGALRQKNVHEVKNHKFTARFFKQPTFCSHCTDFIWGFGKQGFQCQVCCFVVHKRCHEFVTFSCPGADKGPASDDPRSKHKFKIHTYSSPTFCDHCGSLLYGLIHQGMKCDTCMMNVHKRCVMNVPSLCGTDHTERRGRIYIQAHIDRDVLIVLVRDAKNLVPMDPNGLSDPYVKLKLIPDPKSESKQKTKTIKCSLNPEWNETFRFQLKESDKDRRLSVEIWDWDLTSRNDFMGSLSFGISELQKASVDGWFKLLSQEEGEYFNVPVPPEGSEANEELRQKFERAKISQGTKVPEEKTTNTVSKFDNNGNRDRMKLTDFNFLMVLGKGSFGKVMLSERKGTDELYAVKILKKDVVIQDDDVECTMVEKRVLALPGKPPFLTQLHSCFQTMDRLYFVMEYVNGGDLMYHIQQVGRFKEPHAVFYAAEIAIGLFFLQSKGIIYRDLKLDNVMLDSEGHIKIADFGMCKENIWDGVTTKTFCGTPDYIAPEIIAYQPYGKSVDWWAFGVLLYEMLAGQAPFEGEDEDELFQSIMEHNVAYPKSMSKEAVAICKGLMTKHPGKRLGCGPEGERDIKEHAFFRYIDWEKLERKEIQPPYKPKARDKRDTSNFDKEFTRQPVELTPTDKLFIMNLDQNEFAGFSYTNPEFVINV

[11] = target: Serine/threonine-protein kinase pim-2 (Homo sapiens) (UniProt Q9P1W9); assay: Inhibition of human Pim2 at 10 uM relative to control
[12] = target: Rho-associated protein kinase 1 (Homo sapiens) (UniProt Q13464); assay: Inhibition of human ROCK1 at 10 uM relative to control
[13] = target: Histone-lysine N-methyltransferase EZH2 (Homo sapiens) (UniProt Q15910); assay: Inhibition of EZH2 (unknown origin) using Biotin-tagged H4K20me1 and [3H-SAM] as substrate at 1 to 10 uM incubated for 2 hrs by scintillation proximity assay; details: dose 1-10 µM
[14] = target: DNA (cytosine-5)-methyltransferase 1 (Homo sapiens) (UniProt P26358); assay: Inhibition of DNMT1 (unknown origin) using dsDNA as substrate at 1 to 10 uM incubated for 1 hrs in the presence of [3H-SAM] by scintillation proximity assay; details: dose 1-10 µM
[15] = target: Histone-lysine N-methyltransferase SETD7 (Homo sapiens) (UniProt Q8WTS6); assay: Inhibition of SETD7 (unknown origin) using Biotin-tagged H4K20me1 and [3H-SAM] as substrate at 1 to 10 uM incubated for 2 hrs by scintillation proximity assay; details: dose 1-10 µM
Chain of Histone-lysine N-methyltransferase SETD7 (Homo sapiens) (Q8WTS6 whole entry): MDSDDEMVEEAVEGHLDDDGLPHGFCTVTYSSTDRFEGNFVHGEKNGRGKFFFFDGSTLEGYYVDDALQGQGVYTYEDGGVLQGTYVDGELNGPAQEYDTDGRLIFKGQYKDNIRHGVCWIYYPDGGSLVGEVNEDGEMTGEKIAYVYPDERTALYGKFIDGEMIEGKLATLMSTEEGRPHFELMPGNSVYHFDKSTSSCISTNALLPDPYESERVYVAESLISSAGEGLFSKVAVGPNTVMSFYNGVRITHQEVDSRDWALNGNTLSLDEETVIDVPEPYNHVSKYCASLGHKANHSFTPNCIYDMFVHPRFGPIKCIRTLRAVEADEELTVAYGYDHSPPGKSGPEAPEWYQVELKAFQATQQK

[16] = target: RAC-alpha serine/threonine-protein kinase (Homo sapiens) (UniProt P31749); assay: Inhibition of human Akt1 at 10 uM relative to control
U2OS [17] = assay: Inhibition of colony formation in human U2OS cells at 1 uM incubated for 48 hrs in the presence of hydroxyurea by cell clonogenic assay; type: functional, cell-based
[18] = target: Histone-lysine N-methyltransferase KMT5B (Homo sapiens) (UniProt Q4FZB7); assay: Binding affinity to recombinant human 6His-(Tev)-G-SUV420H1 (69 to 335 residues) assessed as increase thermal stability by measuring change in melting temperature at 50 uM in the presence of SAM by thermal shift assay
HL-60 = assay: Cytotoxicity against human HL-60 cells assessed as cell viability at 1.5 to 100 uM incubated after 72 hrs; type: functional, cell-based; details: dose 1.5-100 µM
[19] = target: Protein arginine N-methyltransferase 8 (Homo sapiens) (UniProt Q9NR22); assay: Inhibition of PRMT8 (unknown origin) using Biotin-tagged H4K20me1 and [3H-SAM] as substrate at 1 to 10 uM incubated for 2 hrs by scintillation proximity assay; details: dose 1-10 µM
[20] = target: Sodium-dependent dopamine transporter (Homo sapiens) (UniProt Q01959); assay: Inhibition of human DAT in stable HEK cells at 10 uM relative to control; type: cell-based
[21] = target: Mitogen-activated protein kinase 8 (Homo sapiens) (UniProt P45983); assay: Inhibition of human JNK1 at 10 uM relative to control
Chain of Mitogen-activated protein kinase 8 (Homo sapiens) (P45983 whole entry): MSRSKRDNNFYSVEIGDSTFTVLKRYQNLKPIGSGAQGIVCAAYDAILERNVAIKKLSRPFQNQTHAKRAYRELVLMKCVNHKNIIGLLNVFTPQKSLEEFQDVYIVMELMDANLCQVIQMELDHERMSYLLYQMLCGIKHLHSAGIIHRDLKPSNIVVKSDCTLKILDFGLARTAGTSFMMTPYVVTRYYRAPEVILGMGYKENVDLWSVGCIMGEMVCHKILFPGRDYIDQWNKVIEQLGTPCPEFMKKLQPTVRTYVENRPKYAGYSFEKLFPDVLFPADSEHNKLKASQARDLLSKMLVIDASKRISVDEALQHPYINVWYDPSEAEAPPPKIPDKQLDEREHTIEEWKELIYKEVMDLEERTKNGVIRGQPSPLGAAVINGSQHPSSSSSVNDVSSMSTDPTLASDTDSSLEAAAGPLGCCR

U2OS [22] = assay: Inhibition of colony formation in human U2OS cells at 1 uM incubated for 48 hrs in the presence of CPT by cell clonogenic assay; type: functional, cell-based
U2OS [23] = assay: Inhibition of colony formation in human U2OS cells at 1 uM incubated for 48 hrs in the presence of aphidicolin by cell clonogenic assay; type: functional, cell-based
[24] = target: Histone-lysine N-methyltransferase SUV39H2 (Homo sapiens) (UniProt Q9H5I1); assay: Inhibition of SUV39H2 (unknown origin) using Biotin-tagged H4K20me1 and [3H-SAM] as substrate at 1 to 10 uM incubated for 2 hrs by scintillation proximity assay; details: dose 1-10 µM
Chain of Histone-lysine N-methyltransferase SUV39H2 (Homo sapiens) (Q9H5I1 whole entry): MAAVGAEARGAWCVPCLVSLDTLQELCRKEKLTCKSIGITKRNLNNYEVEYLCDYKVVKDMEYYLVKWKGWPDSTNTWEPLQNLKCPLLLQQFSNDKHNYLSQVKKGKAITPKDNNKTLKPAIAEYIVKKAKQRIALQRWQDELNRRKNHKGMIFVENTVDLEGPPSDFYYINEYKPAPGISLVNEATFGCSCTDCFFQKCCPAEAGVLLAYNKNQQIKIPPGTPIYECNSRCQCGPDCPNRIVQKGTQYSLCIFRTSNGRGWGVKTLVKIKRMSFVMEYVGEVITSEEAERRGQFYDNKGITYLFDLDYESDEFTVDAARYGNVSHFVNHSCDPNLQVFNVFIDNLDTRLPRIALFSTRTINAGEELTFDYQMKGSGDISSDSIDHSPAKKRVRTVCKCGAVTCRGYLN

[25] = target: N-lysine methyltransferase SMYD2 (Homo sapiens) (UniProt Q9NRG4); assay: Inhibition of SMYD2 (unknown origin) using Biotin-tagged H4K20me1 and [3H-SAM] as substrate at 1 to 10 uM incubated for 2 hrs by scintillation proximity assay; details: dose 1-10 µM
Chain of N-lysine methyltransferase SMYD2 (Homo sapiens) (Q9NRG4 whole entry): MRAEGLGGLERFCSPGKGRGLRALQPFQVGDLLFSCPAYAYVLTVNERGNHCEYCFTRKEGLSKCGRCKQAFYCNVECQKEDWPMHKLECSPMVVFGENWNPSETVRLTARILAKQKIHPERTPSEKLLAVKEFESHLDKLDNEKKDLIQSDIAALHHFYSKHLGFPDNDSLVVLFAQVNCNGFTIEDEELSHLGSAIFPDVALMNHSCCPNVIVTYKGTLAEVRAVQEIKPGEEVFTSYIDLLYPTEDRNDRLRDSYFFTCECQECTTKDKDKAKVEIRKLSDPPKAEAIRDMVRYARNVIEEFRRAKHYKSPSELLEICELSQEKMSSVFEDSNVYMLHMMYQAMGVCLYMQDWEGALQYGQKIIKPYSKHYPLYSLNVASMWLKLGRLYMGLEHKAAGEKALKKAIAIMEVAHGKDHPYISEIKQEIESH

[26] = target: Serine/threonine-protein kinase TAO2 (Homo sapiens) (UniProt Q9UL54); assay: Inhibition of human TAOK2 at 10 uM relative to control
Chain of Serine/threonine-protein kinase TAO2 (Homo sapiens) (Q9UL54 whole entry): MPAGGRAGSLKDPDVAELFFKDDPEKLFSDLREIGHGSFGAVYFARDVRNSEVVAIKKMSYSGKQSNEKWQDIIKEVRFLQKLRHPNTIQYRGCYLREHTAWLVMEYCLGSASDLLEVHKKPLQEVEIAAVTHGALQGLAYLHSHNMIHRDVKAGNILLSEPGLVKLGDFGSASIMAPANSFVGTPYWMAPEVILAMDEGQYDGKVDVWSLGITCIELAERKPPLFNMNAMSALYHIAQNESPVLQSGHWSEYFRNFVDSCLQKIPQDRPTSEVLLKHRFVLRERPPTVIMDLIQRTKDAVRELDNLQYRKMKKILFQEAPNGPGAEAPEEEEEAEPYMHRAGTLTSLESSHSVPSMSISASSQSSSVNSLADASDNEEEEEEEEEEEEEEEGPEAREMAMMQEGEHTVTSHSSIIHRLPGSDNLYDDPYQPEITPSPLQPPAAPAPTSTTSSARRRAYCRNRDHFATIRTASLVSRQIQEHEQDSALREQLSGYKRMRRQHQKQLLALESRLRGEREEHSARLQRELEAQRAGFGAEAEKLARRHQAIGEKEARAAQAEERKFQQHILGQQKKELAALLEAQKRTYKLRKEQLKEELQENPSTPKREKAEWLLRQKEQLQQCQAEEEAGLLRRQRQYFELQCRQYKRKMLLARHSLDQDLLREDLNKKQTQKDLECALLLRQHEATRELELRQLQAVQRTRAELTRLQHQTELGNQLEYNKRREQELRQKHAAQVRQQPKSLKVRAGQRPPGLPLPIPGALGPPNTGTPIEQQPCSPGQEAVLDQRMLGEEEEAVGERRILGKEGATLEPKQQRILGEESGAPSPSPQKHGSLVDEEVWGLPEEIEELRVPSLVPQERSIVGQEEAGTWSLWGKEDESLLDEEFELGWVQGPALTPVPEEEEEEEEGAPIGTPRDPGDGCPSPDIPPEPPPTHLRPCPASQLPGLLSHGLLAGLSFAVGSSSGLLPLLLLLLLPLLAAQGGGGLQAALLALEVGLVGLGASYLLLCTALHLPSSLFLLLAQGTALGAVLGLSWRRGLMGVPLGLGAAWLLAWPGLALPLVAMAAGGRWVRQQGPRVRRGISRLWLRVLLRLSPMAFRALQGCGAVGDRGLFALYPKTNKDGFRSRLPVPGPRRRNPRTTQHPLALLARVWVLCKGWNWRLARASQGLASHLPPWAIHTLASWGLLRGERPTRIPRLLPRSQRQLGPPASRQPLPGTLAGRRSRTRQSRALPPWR

[27] = target: Histone-lysine N-methyltransferase, H3 lysine-79 specific (Homo sapiens) (UniProt Q8TEK3); assay: Inhibition of DOT1L (unknown origin) at 1 to 10 uM incubated for 1 hrs by scintillation proximity assay; details: dose 1-10 µM
[28] = target: Histone-lysine N-methyltransferase, H3 lysine-36 specific (Homo sapiens) (UniProt Q96L73); assay: Inhibition of NSD1 (unknown origin) at 1 to 10 uM incubated for 1 hrs by scintillation proximity assay; details: dose 1-10 µM
[29] = target: Protein arginine N-methyltransferase 1 (Homo sapiens) (UniProt Q99873); assay: Inhibition of PRMT1 (unknown origin) using Biotin-tagged H4K20me1 and [3H-SAM] as substrate at 1 to 10 uM incubated for 2 hrs by scintillation proximity assay; details: dose 1-10 µM
[30] = target: Epidermal growth factor receptor (Homo sapiens) (UniProt P00533); assay: Inhibition of human EGFR at 10 uM relative to control
[31] = target: Histone-lysine N-methyltransferase 2A (Homo sapiens) (UniProt Q03164); assay: Inhibition of MLL1 (unknown origin) using Biotin-tagged H4K20me1 and [3H-SAM] as substrate at 1 to 10 uM incubated for 2 hrs by scintillation proximity assay; details: dose 1-10 µM
[32] = target: Protein arginine N-methyltransferase 6 (Homo sapiens) (UniProt Q96LA8); assay: Inhibition of PRMT6 (unknown origin) using Biotin-tagged H4K20me1 and [3H-SAM] as substrate at 1 to 10 uM incubated for 2 hrs by scintillation proximity assay; details: dose 1-10 µM
Chain of Protein arginine N-methyltransferase 6 (Homo sapiens) (Q96LA8 whole entry, looked up): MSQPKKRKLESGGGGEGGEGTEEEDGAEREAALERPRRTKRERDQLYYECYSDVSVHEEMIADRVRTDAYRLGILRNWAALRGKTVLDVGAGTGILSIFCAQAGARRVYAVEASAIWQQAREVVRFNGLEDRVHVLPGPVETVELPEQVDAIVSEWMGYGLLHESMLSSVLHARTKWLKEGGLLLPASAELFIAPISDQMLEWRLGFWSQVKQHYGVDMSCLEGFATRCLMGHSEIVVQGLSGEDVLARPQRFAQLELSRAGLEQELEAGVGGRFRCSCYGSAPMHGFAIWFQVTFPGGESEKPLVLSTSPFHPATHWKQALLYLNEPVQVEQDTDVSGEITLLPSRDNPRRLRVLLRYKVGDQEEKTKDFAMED

U2OS [33] = assay: Antiproliferative activity against human U2OS cells assessed as inhibition in H4K20me3 expression level 21 doublings by Western blot analysis; type: functional, cell-based

inhibition (Homo sapiens [1]): 25% | inhibition (Homo sapiens [2]): 21% | inhibition (Homo sapiens [3]): -7% | inhibition (Homo sapiens [4]): -5%
SMILES: O=C(c1nnc(NC2CCCC2)c2cc(Cl)c(Cl)cc12)N1CCC(O)CC1
Activity (MEF): inactive

inhibition [6]: inactive | inhibition [7]: 3% | inhibition [9]: -10% | inhibition [10]: -3% | inhibition [11]: -3% | inhibition [12]: -1% | inhibition [13]: inactive | inhibition [14]: inactive | inhibition [15]: inactive | inhibition [16]: 0% | ΔTm [18]: 12.5 °C | inhibition [19]: inactive | inhibition [20]: -4% | inhibition [21]: -8% | inhibition [24]: inactive | inhibition [25]: inactive | inhibition [26]: 0% | inhibition [27]: inactive | inhibition [28]: inactive | inhibition [29]: inactive | inhibition [30]: -4% | inhibition [31]: inactive | inhibition [32]: inactive
SMILES: Clc1cc2c(NC3CCCC3)nnc(-c3ccncc3)c2cc1Cl
inhibition (U2OS [5]): Active | Activity (U2OS [8]): Active | Activity (HeLa): Active | inhibition (U2OS [17]): Active | Activity (HL-60): Active | inhibition (U2OS [22]): Active | inhibition (U2OS [23]): Active | Activity (U2OS [33]): Active
